As usually defined, the Ki is a dissociation constant, usually derived from enzyme kinetics or from competition with a known ligand. As a reminder, the melting point is the temperature of the solid-liquid transition.

The structures appear in SMILES notation. Counter-ions that a name gives are not always drawn. Like-named read-outs stand apart in the source and are kept apart here.

The target in one data set is T1, D2 receptors (Chlorocebus aethiops, UniProt P52702).
T1 construct: expressed in transfected cells; host or cells: COS cells
Nature of the data set: D2 receptor binding assay (3H-YM 09151-2 displacement). Also on record: species or system African Green monkey. The note with it: COS cells with recombinant D2 receptor; 0.5 nM 3H-YM 09151-2. The procedure:
(§1) Assay for D2 and D3 receptor binding activity
(§2) Pellets of COS cells containing recombinantly produced D2 or D3 receptors from African Green monkey were used for the assays. The sample is homogenized in 100 volumes (w/vol) of 0.05 M Tris HCl buffer at 4° C. and pH 7.4. The sample is then centrifuged at 30,000×g and resuspended and rehomogenized. The sample is then centrifuged as described and the final tissue sample is frozen until use. The tissue is resuspended 1:20 (wt/vol) in 0.05 M Tris HCl buffer containing 100 mM NaCl.
(§3) Incubations are carried out at 48° C. and contain 0.4 ml of tissue sample, 0.5 nM ^3H-YM 09151-2 and the compound of interest in a total incubation of 1.0 ml. Nonspecific binding is defined as that binding found in the presence of 1 μM spiperone; without further additions, nonspecific binding is less than 20% of total binding.

The target in another data set is T2, D3 receptors (Chlorocebus aethiops, UniProt P52703).
T2 construct: expressed in transfected cells; host or cells: COS cells
Briefly: D3 receptor binding assay (3H-YM 09151-2 displacement). Also on record: species or system African Green monkey. The note with it: COS cells with recombinant D3 receptor; 0.5 nM 3H-YM 09151-2. The method, then:
as §1, §2, §3

In data set [1] the target is T3, human dopamine D4 receptor subtype (Homo sapiens, UniProt P21917).
T3 construct: expressed in transfected cells
T3 sequence (P21917 1-419): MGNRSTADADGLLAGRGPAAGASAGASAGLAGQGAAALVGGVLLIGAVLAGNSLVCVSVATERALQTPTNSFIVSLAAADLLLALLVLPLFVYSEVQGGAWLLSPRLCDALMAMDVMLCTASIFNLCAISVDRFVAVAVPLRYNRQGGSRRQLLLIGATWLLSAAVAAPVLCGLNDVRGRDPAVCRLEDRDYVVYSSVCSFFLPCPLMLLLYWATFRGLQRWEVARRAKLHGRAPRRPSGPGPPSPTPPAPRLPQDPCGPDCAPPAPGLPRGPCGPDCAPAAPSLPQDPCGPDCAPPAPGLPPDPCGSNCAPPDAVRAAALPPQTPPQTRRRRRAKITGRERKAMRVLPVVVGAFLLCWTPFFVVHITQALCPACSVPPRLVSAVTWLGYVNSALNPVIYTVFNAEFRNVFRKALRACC
Nature of the data set: D4 receptor binding assay ([3H]YM-09151-2 displacement). The procedure: Assay for D4 receptor binding activity
Clonal cell lines expressing the human dopamine D4 receptor subtype were harvested in PBS and the cells centrifuged and the pellets stored at −80° C. until used in the binding assay. The pellets were resuspended and the cells lysed at 4° C. in 50 mM Tris pH 7.4 buffer containing 120 mM NaCl, 1 mM EDTA and 5 mM MgCl2. The homogenate is centrifuged at 48000×g for 10 minutes at 4° C. The resulting pellet is resuspended in fresh buffer and centrifuged again. After resuspension of the pellet in fresh buffer a […] aliquot is removed for protein determination. […] Incubations were carried out for 60 minutes at 25° C. in the presence of 0.1 nM [^3H] […] The incubation was terminated by rapid filtration through Whatman GF/C filters and rinsed with 2×4 ml washes of chilled 50 mM Tris (pH 7.4) and 120 mM NaCl. Non-specific binding was determined with 1 μM spiperone and radioactivity determined by counting in an LKB beta counter. Binding parameters were determined by non-linear least squares regression analysis, from which the inhibition constant Ki could be calculated for each test compound.

The mark [2] stands for this setting: clonal cell lines expressing human D4, 0.1 nM [3H]YM-09151-2, 60 minutes at 25° C., read-out: Ki.

T1 sequence (P52702 whole entry): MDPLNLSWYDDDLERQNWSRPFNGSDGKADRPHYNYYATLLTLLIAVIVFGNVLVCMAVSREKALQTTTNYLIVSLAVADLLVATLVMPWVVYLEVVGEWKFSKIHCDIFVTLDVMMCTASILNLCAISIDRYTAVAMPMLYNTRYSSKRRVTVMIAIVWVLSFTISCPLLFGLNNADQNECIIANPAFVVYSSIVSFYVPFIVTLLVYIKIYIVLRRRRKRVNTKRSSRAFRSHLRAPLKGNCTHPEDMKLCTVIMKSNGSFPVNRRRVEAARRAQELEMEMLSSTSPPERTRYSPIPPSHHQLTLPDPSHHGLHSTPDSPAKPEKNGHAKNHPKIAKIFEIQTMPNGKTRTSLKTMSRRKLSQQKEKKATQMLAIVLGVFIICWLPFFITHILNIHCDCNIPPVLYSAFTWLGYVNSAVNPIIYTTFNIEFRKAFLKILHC
T2 sequence (P52703 whole entry): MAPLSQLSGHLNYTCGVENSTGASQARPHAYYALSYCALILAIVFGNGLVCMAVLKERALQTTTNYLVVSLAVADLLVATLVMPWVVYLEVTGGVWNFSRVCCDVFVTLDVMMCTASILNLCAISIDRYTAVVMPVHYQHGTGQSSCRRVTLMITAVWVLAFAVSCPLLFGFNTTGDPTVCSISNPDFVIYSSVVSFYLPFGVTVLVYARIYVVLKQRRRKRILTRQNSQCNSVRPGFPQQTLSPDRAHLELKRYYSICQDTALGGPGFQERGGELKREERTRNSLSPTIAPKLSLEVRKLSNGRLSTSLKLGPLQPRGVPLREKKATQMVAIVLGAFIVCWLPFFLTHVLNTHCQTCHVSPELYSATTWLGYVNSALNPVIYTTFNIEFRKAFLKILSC

Take `CN(Cc1ccccc1)Cc1nc2c([nH]1)-c1ccccc1CC2` [Compound 2, 1H-{2-(N-benzyl-N-methyl)aminomethyl}-(5,6-dihydro)-naphth[1,2-d]imidazole dihydrochloride]: the Ki on D2 receptors is 350 nM; at D3 receptors, 210 nM; in data set [1] it was 81 nM.

Take `c1cnc(N2CCN(Cc3nc4c([nH]3)-c3ccccc3CC4)CC2)nc1` [Compound 1, 1H-2-(1-(4-(2-pyrimidyl)piperazinyl))methyl-(5,6-dihydro)-naphth[1,2-d]imidazole dihydrochloride]: the inhibition constant (Ki) on D2 receptors was 4200 nM; at D3 receptors it was 7800 nM; in data set [1] (setting [2]), 12 nM.

For `c1cnc(N2CCN(Cc3nc4c([nH]3)-c3ccccc3CC4)CC2)nc1` (as salt: hydrochloride) [Compound 1, 1H-2-(1-(4-(2-pyrimidyl)piperazinyl))methyl-(5,6-dihydro)-naphth[1,2-d]imidazole dihydrochloride], the melting point was in the range of 212 to 214 °C.

`CN(Cc1ccccc1)Cc1nc2c([nH]1)-c1ccccc1OC2` (as salt: hydrochloride) [Compound 3, 1H-{2-(N-benzyl-N-methyl)aminomethyl}chromano[3,4-d]imidazole dihydrochloride]: the melting point was 198 to 201 °C (dec.).

Compound `CN(Cc1ccccc1)Cc1nc2c([nH]1)-c1ccccc1CC2` (as salt: hydrochloride) [Compound 2, 1H-{2-(N-benzyl-N-methyl)aminomethyl}-(5,6-dihydro)-naphth[1,2-d]imidazole dihydrochloride] displayed a melting point of 225 to 227 °C.

In the case of `CN(Cc1ccccc1)Cc1nc2c([nH]1)-c1ccccc1OC2` [Compound 3, 1H-{2-(N-benzyl-N-methyl)aminomethyl}chromano[3,4-d]imidazole dihydrochloride], the Ki on D2 receptors was found to be 220 nM; at D3 receptors, 440 nM; in data set [1] (setting [2]) it was 145 nM.

Source of the values: US6436941B1, “5,6-dihydro-napth[1,2-d]-imidazole, napth[1,2-d]imidazole, and chromane[3,4-d]imidazole derivatives” (Neurogen Corporation, priority 1995, dated 2002).
